# Calls of active or inactive are those of the source. The calls are words filed in the database; no cut-off is given here.
# What was measured:
# TK-10 = assay: Cytotoxicity against human TK10 cells assessed as growth inhibition at 10 uM; type: functional; settings: read-out: GI
# ACHN = assay: Cytotoxicity against human ACHN cells assessed as growth inhibition at 10 uM; type: functional; settings: read-out: GI
# [1] = Cytotoxicity against human OVCAR8 cells assessed as growth inhibition at 10 uM; type: functional; settings: OVCAR-8, read-out: GI
# COLO 205 = assay: Cytotoxicity against human COLO205 cells assessed as growth inhibition at 10 uM; type: functional; settings: read-out: GI
# BT-549 = assay: Cytotoxicity against human BT549 cells assessed as growth inhibition at 10 uM; type: functional; settings: read-out: GI
# HCC 2998 = assay: Cytotoxicity against human HCC2998 cells assessed as growth inhibition at 10 uM; type: functional; settings: read-out: GI
# M14 = assay: Cytotoxicity against human M14 cells assessed as growth inhibition at 10 uM; type: functional; settings: read-out: GI
# RPMI-8226 = assay: Cytotoxicity against human RPMI8226 cells assessed as growth inhibition at 10 uM; type: functional; settings: read-out: GI
# HCT-116 = assay: Cytotoxicity against human HCT116 cells assessed as growth inhibition at 10 uM; type: functional; settings: read-out: GI
# [2] = Cytotoxicity against human NCI-ADR-RES cells assessed as growth inhibition at 10 uM; type: functional; settings: read-out: GI
# IGROV-1 = assay: Cytotoxicity against human IGROV1 cells assessed as growth inhibition at 10 uM; type: functional; settings: read-out: GI
# SK-MEL-5 = assay: Cytotoxicity against human SK-MEL-5 cells assessed as growth inhibition at 10 uM; type: functional; settings: read-out: GI
# Caenorhabditis elegans [3] = assay: Toxicity in L1 stage Caenorhabditis elegans N2 assessed as viability and reproduction at 10 uM; type: organism-based; settings: in vivo
# MDA-MB-468 = assay: Cytotoxicity against human MDA-MB-468 cells assessed as growth inhibition at 10 uM; type: functional; settings: read-out: GI
# MCF7 [4] = assay: Antiproliferative activity against human MCF7 cells after 72 hrs by MTT assay; type: functional, cell-based; settings: MCF7, 72 h
# U-251 = assay: Cytotoxicity against human U251 cells assessed as growth inhibition at 10 uM; type: functional; settings: read-out: GI
# NCI-H23 = assay: Cytotoxicity against human NCI-H23 cells assessed as growth inhibition at 10 uM; type: functional; settings: read-out: GI
# SF-268 = assay: Cytotoxicity against human SF268 cells assessed as growth inhibition at 10 uM; type: functional; settings: read-out: GI
# MOLT-4 = assay: Cytotoxicity against human MOLT4 cells assessed as growth inhibition at 10 uM; type: functional; settings: read-out: GI
# HT-29 = assay: Cytotoxicity against human HT-29 cells assessed as growth inhibition at 10 uM; type: functional; settings: read-out: GI
# [5] = Cytotoxicity against human UACC62 cells assessed as growth inhibition at 10 uM; type: functional; settings: UACC-62, read-out: GI
# K562 = assay: Cytotoxicity against human K562 cells assessed as growth inhibition at 10 uM; type: functional; settings: read-out: GI
# [6] = Cytotoxicity against human OVCAR4 cells assessed as growth inhibition at 10 uM; type: functional; settings: OVCAR-4, read-out: GI
# CCRF-CEM = assay: Cytotoxicity against human CCRF-CEM cells assessed as growth inhibition at 10 uM; type: functional; settings: read-out: GI
# MDA-MB-231 [7] = assay: Cytotoxicity against human MDA-MB-231 cells assessed as growth inhibition at 10 uM; type: functional; settings: read-out: GI
# [8] = Cytotoxicity against human OVCAR3 cells assessed as growth inhibition at 10 uM; type: functional; settings: OVCAR-3, read-out: GI
# 786-0 = assay: Cytotoxicity against human 786-0 cells assessed as growth inhibition at 10 uM; type: functional; settings: read-out: GI
# SN12C = assay: Cytotoxicity against human SN12C cells assessed as growth inhibition at 10 uM; type: functional; settings: read-out: GI
# HL-60(TB) = assay: Cytotoxicity against human HL-60(TB) cells assessed as growth inhibition at 10 uM; type: functional; settings: read-out: GI
# MDA-MB-231 [9] = assay: Antimigratory activity in human MDA-MB-231 cells after 24 hrs by wound healing assay; type: functional, cell-based; settings: MDA-MB-231, 24 h
# SNB-19 = assay: Cytotoxicity against human SNB19 cells assessed as growth inhibition at 10 uM; type: functional; settings: read-out: GI
# MDA-MB-435 = assay: Cytotoxicity against human MDA-MB-435 cells assessed as growth inhibition at 10 uM; type: functional; settings: read-out: GI
# [10] = Cytotoxicity against human HCT15 cells assessed as growth inhibition at 10 uM; type: functional; settings: HCT-15, read-out: GI
# [11] = Cytotoxicity against human Hs578T cells assessed as growth inhibition at 10 uM; type: functional; settings: Hs-578T, read-out: GI
# KM12 = assay: Cytotoxicity against human KM12 cells assessed as growth inhibition at 10 uM; type: functional; settings: read-out: GI
# CAKI-1 = assay: Cytotoxicity against human CAKI-1 cells assessed as growth inhibition at 10 uM; type: functional; settings: read-out: GI
# PC-3 = assay: Cytotoxicity against human PC3 cells assessed as growth inhibition at 10 uM; type: functional; settings: read-out: GI
# HOP-62 = assay: Cytotoxicity against human HOP62 cells assessed as growth inhibition at 10 uM; type: functional; settings: read-out: GI
# Malme-3M = assay: Cytotoxicity against human MALME-3M cells assessed as growth inhibition at 10 uM; type: functional; settings: read-out: GI
# DU-145 = assay: Cytotoxicity against human DU145 cells assessed as growth inhibition at 10 uM; type: functional; settings: read-out: GI
# SW-620 = assay: Cytotoxicity against human SW620 cells assessed as growth inhibition at 10 uM; type: functional; settings: read-out: GI
# SF-539 = assay: Cytotoxicity against human SF539 cells assessed as growth inhibition at 10 uM; type: functional; settings: read-out: GI
# SK-MEL-28 = assay: Cytotoxicity against human SK-MEL-28 cells assessed as growth inhibition at 10 uM; type: functional; settings: read-out: GI
# A549 = assay: Cytotoxicity against human A549 cells assessed as growth inhibition at 10 uM; type: functional; settings: read-out: GI
# NCI-H460 = assay: Cytotoxicity against human NCI-H460 cells assessed as growth inhibition at 10 uM; type: functional; settings: read-out: GI
# Caenorhabditis elegans [12] = assay: Toxicity in L1 stage Caenorhabditis elegans N2 assessed as viability and reproduction at 50 uM; type: organism-based; settings: in vivo
# [13] = Cytotoxicity against human UACC257 cells assessed as growth inhibition at 10 uM; type: functional; settings: UACC-257, read-out: GI
# T47D = assay: Cytotoxicity against human T47D cells assessed as growth inhibition at 10 uM; type: functional; settings: read-out: GI
# SK-MEL-2 = assay: Cytotoxicity against human SK-MEL-2 cells assessed as growth inhibition at 10 uM; type: functional; settings: read-out: GI
# MCF7 [14] = assay: Cytotoxicity against human MCF7 cells assessed as growth inhibition at 10 uM; type: functional; settings: read-out: GI
# RXF 393 = assay: Cytotoxicity against human RXF393 cells assessed as growth inhibition at 10 uM; type: functional; settings: read-out: GI
# [15] = Cytotoxicity against human EKVX cells assessed as growth inhibition at 10 uM; type: functional; settings: read-out: GI
# LOX IMVI = assay: Cytotoxicity against human LOXIMVI cells assessed as growth inhibition at 10 uM; type: functional; settings: read-out: GI
# NCI-H226 = assay: Cytotoxicity against human NCI-H226 cells assessed as growth inhibition at 10 uM; type: functional; settings: read-out: GI
# MDA-MB-231 [16] = assay: Antiproliferative activity against human MDA-MB-231 cells after 72 hrs by MTT assay; type: functional, cell-based; settings: MDA-MB-231, 72 h
# MDA-MB-231 [17] = assay: Antiinvasive activity against human MDA-MB-231 cells assessed as inhibition of cell invasion at 15 uM after 24 hrs by BME Cell invasion assay kit; type: functional
# [18] = Cytotoxicity against human UO31 cells assessed as growth inhibition at 10 uM; type: functional; settings: UO-31, read-out: GI
# SNB-75 = assay: Cytotoxicity against human SNB75 cells assessed as growth inhibition at 10 uM; type: functional; settings: read-out: GI
# NCI-H522 = assay: Cytotoxicity against human NCI-H522 cells assessed as growth inhibition at 10 uM; type: functional; settings: read-out: GI
# SK-OV-3 = assay: Cytotoxicity against human SKOV3 cells assessed as growth inhibition at 10 uM; type: functional; settings: read-out: GI
# NCI-H322M = assay: Cytotoxicity against human NCI-H322M cells assessed as growth inhibition at 10 uM; type: functional; settings: read-out: GI
# [19] = Cytotoxicity against human OVCAR5 cells assessed as growth inhibition at 10 uM; type: functional; settings: OVCAR-5, read-out: GI
# SR = assay: Cytotoxicity against human SR cells assessed as growth inhibition at 10 uM; type: functional; settings: read-out: GI
structure (smiles),measurement,setting,value
C=C(C)[C@H]1O[C@H]2CC[C@@]3(C)[C@@](O)(CC[C@H]4[C@@H]5OC(C)(C)[C@H]6C[C@@H]7C(=C)Cc8ccc9[nH]c(c5c9c8[C@@]76O)[C@@]43C)[C@]23O[C@@H]3[C@H]1O,inhibition of growth at 10 µM,TK-10,107%
same,inhibition of growth at 10 µM,ACHN,101%
same,inhibition of growth at 10 µM,[1],96.9%
same,inhibition of growth at 10 µM,COLO 205,106%
same,inhibition of growth at 10 µM,BT-549,101%
same,inhibition of growth at 10 µM,HCC 2998,104%
same,inhibition of growth at 10 µM,M14,100%
same,inhibition of growth at 10 µM,RPMI-8226,72.5%
same,inhibition of growth at 10 µM,HCT-116,92.4%
same,inhibition of growth at 10 µM,[2],109%
same,inhibition of growth at 10 µM,IGROV-1,89.7%
same,inhibition of growth at 10 µM,SK-MEL-5,104%
same,Activity,Caenorhabditis elegans [3],Non-toxic
same,inhibition of growth at 10 µM,MDA-MB-468,96.6%
same,IC50,MCF7 [4],17.5 µM
same,inhibition of growth at 10 µM,U-251,99%
same,inhibition of growth at 10 µM,NCI-H23,117%
same,inhibition of growth at 10 µM,SF-268,88.9%
same,inhibition of growth at 10 µM,MOLT-4,78%
same,inhibition of growth at 10 µM,HT-29,90.6%
same,inhibition of growth at 10 µM,[5],101%
same,inhibition of growth at 10 µM,K562,76.9%
same,inhibition of growth at 10 µM,[6],109%
same,inhibition of growth at 10 µM,CCRF-CEM,68%
same,inhibition of growth at 10 µM,MDA-MB-231 [7],101%
same,inhibition of growth at 10 µM,[8],111%
same,inhibition of growth at 10 µM,786-0,96.2%
same,inhibition of growth at 10 µM,SN12C,99.2%
same,inhibition of growth at 10 µM,HL-60(TB),101%
same,IC50,MDA-MB-231 [9],20.3 µM
same,inhibition of growth at 10 µM,SNB-19,101%
same,inhibition of growth at 10 µM,MDA-MB-435,106%
same,inhibition of growth at 10 µM,[10],98.9%
same,inhibition of growth at 10 µM,[11],92.2%
same,inhibition of growth at 10 µM,KM12,110%
same,inhibition of growth at 10 µM,CAKI-1,107%
same,inhibition of growth at 10 µM,PC-3,82.9%
same,inhibition of growth at 10 µM,HOP-62,99.2%
same,inhibition of growth at 10 µM,Malme-3M,98.5%
same,inhibition of growth at 10 µM,DU-145,100%
same,inhibition of growth at 10 µM,SW-620,106%
same,inhibition of growth at 10 µM,SF-539,90.7%
same,inhibition of growth at 10 µM,SK-MEL-28,110%
same,inhibition of growth at 10 µM,A549,92.6%
same,inhibition of growth at 10 µM,NCI-H460,100%
same,Activity,Caenorhabditis elegans [12],Non-toxic
same,inhibition of growth at 10 µM,[13],97.1%
same,inhibition of growth at 10 µM,T47D,94.8%
same,inhibition of growth at 10 µM,SK-MEL-2,96.4%
same,inhibition of growth at 10 µM,MCF7 [14],100%
same,inhibition of growth at 10 µM,RXF 393,95%
same,inhibition of growth at 10 µM,[15],104%
same,inhibition of growth at 10 µM,LOX IMVI,105%
same,inhibition of growth at 10 µM,NCI-H226,98.2%
same,IC50,MDA-MB-231 [16],25.4 µM
same,inhibition,MDA-MB-231 [17],inactive
same,inhibition of growth at 10 µM,[18],72.5%
same,inhibition of growth at 10 µM,SNB-75,84.4%
same,inhibition of growth at 10 µM,NCI-H522,86%
same,inhibition of growth at 10 µM,SK-OV-3,103%
same,inhibition of growth at 10 µM,NCI-H322M,99.4%
same,inhibition of growth at 10 µM,[19],115%
same,inhibition of growth at 10 µM,SR,91.9%
